Where a chain is given by its changes, count along the chain named.
How the values were obtained:
Assay in all cases: HEK assay: α-Gal A activity in HEK-293 cell lysate with migalastat
Assay type in all cases: cell-based
[1] = target: T1, α-Gal A mutant form p.Arg301Gln (c.902 G > A) (Homo sapiens, UniProt P06280, R301Q)
T1 construct: expressed in transfected cells; host or cells: HEK-293
T1 sequence (P06280 32-429 R301Q): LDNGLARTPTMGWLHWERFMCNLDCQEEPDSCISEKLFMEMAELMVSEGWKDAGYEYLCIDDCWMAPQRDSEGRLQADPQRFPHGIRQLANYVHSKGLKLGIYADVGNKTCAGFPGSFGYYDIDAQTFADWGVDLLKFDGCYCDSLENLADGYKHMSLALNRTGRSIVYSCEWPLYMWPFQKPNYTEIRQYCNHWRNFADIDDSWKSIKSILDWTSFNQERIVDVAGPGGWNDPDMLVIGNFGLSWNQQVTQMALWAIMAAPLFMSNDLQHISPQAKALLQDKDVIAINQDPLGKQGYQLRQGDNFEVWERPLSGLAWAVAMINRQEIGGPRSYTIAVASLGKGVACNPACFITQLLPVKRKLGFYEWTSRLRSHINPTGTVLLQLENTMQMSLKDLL
In short: (§1)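 HEK-293 cells are transfected transiently with cDNA for each missense or small in-frame indel α-Gal A mutant. They are cultured ±migalastat across 17 nM to 1 mM over 4 to 5 days, after which lysate enzyme is quantified fluorogenically (4-MU-α-Gal) or by immunoblot.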

[2] = target: T2, α-Gal A mutant form p.Asp264Tyr (c.790 G > T) (Homo sapiens, UniProt P06280, D264Y)
T2 construct: expressed in transfected cells; host or cells: HEK-293
T2 sequence (P06280 32-429 D264Y): T1 sequence (P06280 32-429 R301Q) with D233Y, Q270R
In short: as §1

[3] = target: T3, α-Gal A mutant form p.Gly271Ser; Asp313Tyr (c.811 G > A; c.937 G > T) (Homo sapiens, UniProt P06280, D313Y/G271S)
T3 construct: expressed in transfected cells; host or cells: HEK-293
T3 sequence (P06280 32-429 G271S/D313Y): T1 sequence (P06280 32-429 R301Q) with G240S, Q270R, D282Y
In short: as §1

[4] = target: T4, α-Gal A mutant form p.Gly85Asp (c.254 G > A) (Homo sapiens, UniProt P06280, G85D)
T4 construct: expressed in transfected cells; host or cells: HEK-293
T4 sequence (P06280 32-429 G85D): T1 sequence (P06280 32-429 R301Q) with G54D, Q270R
In short: as §1

[5] = target: T5, α-Gal A mutant form p.Pro259Arg (c.776 C > G) (Homo sapiens, UniProt P06280, P259R)
T5 construct: expressed in transfected cells; host or cells: HEK-293
T5 sequence (P06280 32-429 P259R): T1 sequence (P06280 32-429 R301Q) with P228R, Q270R
In short: as §1

[6] = +10 μM migalastat, HEK-293 cell lysate, mean ± SEM, n = 20
[7] = HEK293, 10 μM migalastat minus baseline, read-out: Absolute increase at 10 μM (% WT)

## OC[C@H]1NC[C@H](O)[C@@H](O)[C@H]1O [migalastat]
[1]; 10 μM migalastat
  α-Gal A activity at 10 μM (fold over baseline): 8.12 fold over baseline
[1]; [6]
  +Migalastat α-Gal A activity: 15547 ± 353 nmol/mg/h
  +Migalastat α-Gal A activity % WT: 44.5 ± 1.0 % WT
[1]; [7]
  activation at 10 µM: 39%
[2]; 10 μM migalastat
  α-Gal A activity at 10 μM (fold over baseline): 12.89 fold over baseline
[2]; [6]
  +Migalastat α-Gal A activity: 1842 ± 100 nmol/mg/h
  +Migalastat α-Gal A activity % WT: 6.2 ± 0.3 % WT
[2]; [7]
  activation at 10 µM: 5.7%
[3]; 10 μM migalastat minus baseline
  Absolute increase at 10 μM (% WT): 3.0 % WT
[3]; [6]
  +Migalastat α-Gal A activity: 877 ± 18 nmol/mg/h
  +Migalastat α-Gal A activity % WT: 3.0 ± 0.2 % WT
[4]; 10 μM migalastat
  α-Gal A activity at 10 μM (fold over baseline): 5.10 fold over baseline
[4]; [6]
  +Migalastat α-Gal A activity: 4534 ± 135 nmol/mg/h
  +Migalastat α-Gal A activity % WT: 14.3 ± 0.9 % WT
[4]; [7]
  activation at 10 µM: 11.6%
[5]; 10 μM migalastat
  α-Gal A activity at 10 μM (fold over baseline): 2.64 fold over baseline
[5]; [6]
  +Migalastat α-Gal A activity: 17645 ± 515 nmol/mg/h
  +Migalastat α-Gal A activity % WT: 60.3 ± 3.8 % WT
[5]; [7]
  activation at 10 µM: 37%
